ChEMBL document CHEMBL3045792, “Synthesis, antimicrobial activity, and molecular modeling of novel 4-(3-(4-benzylpiperazin-1-yl)propoxy)-7-methoxy-3-substituted phenyl-2H-chromen-2-one” (2013)
Active and inactive are the calls of the source. The rule behind the calls is not given here.

Assays:
Format in all cases: functional
Bacillus subtilis [1] = experiment: Antibacterial activity against Bacillus subtilis assessed as growth inhibition at 600 ug/ml by NCCLS […] method; details: read-out: IZ
Exserohilum rostratum [2] = experiment: Antifungal activity against Setosphaeria rostrata assessed as growth inhibition at 1200 ug/ml; details: read-out: IZ
Exserohilum rostratum [3] = experiment: Antifungal activity against Setosphaeria rostrata assessed as growth inhibition at 600 ug/ml; details: read-out: IZ
Klebsiella aerogenes [4] = experiment: Antibacterial activity against Enterobacter aerogenes assessed as growth inhibition at 600 ug/ml by NCCLS […] method; details: read-out: IZ
Priestia megaterium [5] = experiment: Antibacterial activity against Bacillus megaterium assessed as growth inhibition at 600 ug/ml by NCCLS […] method; details: read-out: IZ
Proteus mirabilis [6] = experiment: Antibacterial activity against Proteus mirabilis assessed as growth inhibition at 900 ug/ml by NCCLS […] method; details: read-out: IZ
Streptococcus pyogenes [7] = experiment: Antibacterial activity against Streptococcus pyogenes assessed as growth inhibition at 600 ug/ml by NCCLS […] method; details: read-out: IZ
Klebsiella pneumoniae [8] = experiment: Antibacterial activity against Klebsiella pneumoniae assessed as growth inhibition at 900 ug/ml by NCCLS […] method; details: read-out: IZ
Proteus vulgaris [9] = experiment: Antibacterial activity against Proteus vulgaris assessed as growth inhibition at 900 ug/ml by NCCLS […] method; details: read-out: IZ
Bacillus pumilus [10] = experiment: Antibacterial activity against Bacillus pumilus assessed as growth inhibition at 900 ug/ml by NCCLS […] method
Bacillus pumilus [11] = experiment: Antibacterial activity against Bacillus pumilus assessed as growth inhibition at 600 ug/ml by NCCLS […] method
Proteus mirabilis [12] = experiment: Antibacterial activity against Proteus mirabilis assessed as growth inhibition at 600 ug/ml by NCCLS […] method; details: read-out: IZ
Staphylococcus aureus [13] = experiment: Antibacterial activity against Staphylococcus aureus assessed as growth inhibition at 900 ug/ml by NCCLS […] method; details: read-out: IZ
Exserohilum rostratum [14] = experiment: Antifungal activity against Setosphaeria rostrata assessed as growth inhibition at 300 ug/ml; details: read-out: IZ
Exserohilum rostratum [15] = experiment: Antifungal activity against Setosphaeria rostrata assessed as growth inhibition at 900 ug/ml; details: read-out: IZ
Fusarium oxysporum [16] = experiment: Antifungal activity against Fusarium oxysporum assessed as growth inhibition at 300 ug/ml; details: read-out: IZ
Staphylococcus aureus [17] = experiment: Antibacterial activity against Staphylococcus aureus assessed as growth inhibition at 600 ug/ml by NCCLS […] method; details: read-out: IZ
Streptococcus pyogenes [18] = experiment: Antibacterial activity against Streptococcus pyogenes assessed as growth inhibition at 900 ug/ml by NCCLS […] method; details: read-out: IZ
Escherichia coli [19] = experiment: Antibacterial activity against Escherichia coli assessed as growth inhibition at 600 ug/ml by NCCLS […] method; details: read-out: IZ
Escherichia coli [20] = experiment: Antibacterial activity against Escherichia coli assessed as growth inhibition at 900 ug/ml by NCCLS […] method; details: read-out: IZ
Klebsiella aerogenes [21] = experiment: Antibacterial activity against Enterobacter aerogenes assessed as growth inhibition at 900 ug/ml by NCCLS […] method; details: read-out: IZ
Candida albicans [22] = experiment: Antifungal activity against Candida albicans assessed as growth inhibition at 600 ug/ml
Bacillus subtilis [23] = experiment: Antibacterial activity against Bacillus subtilis assessed as growth inhibition at 900 ug/ml by NCCLS […] method; details: read-out: IZ
Colletotrichum falcatum [24] = experiment: Antifungal activity against Glomerella tucumanensis assessed as growth inhibition at 1200 ug/ml; details: read-out: IZ
Priestia megaterium [25] = experiment: Antibacterial activity against Bacillus megaterium assessed as growth inhibition at 900 ug/ml by NCCLS […] method; details: read-out: IZ
Klebsiella pneumoniae [26] = experiment: Antibacterial activity against Klebsiella pneumoniae assessed as growth inhibition at 600 ug/ml by NCCLS […] method; details: read-out: IZ
Candida albicans [27] = experiment: Antifungal activity against Candida albicans assessed as growth inhibition at 900 ug/ml
Colletotrichum falcatum [28] = experiment: Antifungal activity against Glomerella tucumanensis assessed as growth inhibition at 900 ug/ml; details: read-out: IZ
Candida albicans [29] = experiment: Antifungal activity against Candida albicans assessed as growth inhibition at 1200 ug/ml
Fusarium oxysporum [30] = experiment: Antifungal activity against Fusarium oxysporum assessed as growth inhibition at 600 ug/ml; details: read-out: IZ
Colletotrichum falcatum [31] = experiment: Antifungal activity against Glomerella tucumanensis assessed as growth inhibition at 600 ug/ml; details: read-out: IZ
Candida albicans [32] = experiment: Antifungal activity against Candida albicans assessed as growth inhibition at 300 ug/ml
Proteus vulgaris [33] = experiment: Antibacterial activity against Proteus vulgaris assessed as growth inhibition at 600 ug/ml by NCCLS […] method; details: read-out: IZ
Fusarium oxysporum [34] = experiment: Antifungal activity against Fusarium oxysporum assessed as growth inhibition at 900 ug/ml; details: read-out: IZ
Colletotrichum falcatum [35] = experiment: Antifungal activity against Glomerella tucumanensis assessed as growth inhibition at 300 ug/ml; details: read-out: IZ
Fusarium oxysporum [36] = experiment: Antifungal activity against Fusarium oxysporum assessed as growth inhibition at 1200 ug/ml; details: read-out: IZ

Structure (SMILES) | zone of inhibition at 600 µg/mL (Bacillus subtilis [1]) [mm] | zone of inhibition at 1200 µg/mL (Exserohilum rostratum [2]) [mm] | zone of inhibition at 600 µg/mL (Exserohilum rostratum [3]) [mm] | zone of inhibition at 600 µg/mL (Klebsiella aerogenes [4]) [mm] | zone of inhibition at 600 µg/mL (Priestia megaterium [5]) [mm] | zone of inhibition at 900 µg/mL (Proteus mirabilis [6]) [mm] | zone of inhibition at 600 µg/mL (Streptococcus pyogenes [7]) [mm] | zone of inhibition at 900 µg/mL (Klebsiella pneumoniae [8]) [mm] | zone of inhibition at 900 µg/mL (Proteus vulgaris [9]) [mm] | zone of inhibition at 600 µg/mL (Proteus mirabilis [12]) [mm] | zone of inhibition at 900 µg/mL (Staphylococcus aureus [13]) [mm] | zone of inhibition at 300 µg/mL (Exserohilum rostratum [14]) [mm] | zone of inhibition at 900 µg/mL (Exserohilum rostratum [15]) [mm] | zone of inhibition at 300 µg/mL (Fusarium oxysporum [16]) [mm] | zone of inhibition at 600 µg/mL (Staphylococcus aureus [17]) [mm] | zone of inhibition at 900 µg/mL (Streptococcus pyogenes [18]) [mm] | zone of inhibition at 600 µg/mL (Escherichia coli [19]) [mm] | zone of inhibition at 900 µg/mL (Escherichia coli [20]) [mm] | zone of inhibition at 900 µg/mL (Klebsiella aerogenes [21]) [mm] | zone of inhibition at 900 µg/mL (Bacillus subtilis [23]) [mm] | further results
CCCOc1ccc(CN2CCN(CCCOc3c(-c4ccccc4)c(=O)oc4cc(OC)ccc34)CC2)cc1 | 2.5 | 28.6 | 6.02 | 2 | 4.2 | 2.48 | 3.25 | 4.25 | 8.09 | 1.02 | 3.25 | 3.25 | 14.6 | 2.48 | 1.55 | 6.84 | 1.25 | 3.49 | 4.02 | 4.25 | zone of inhibition at 900 µg/mL (Bacillus pumilus [10]; read-out: IZ): 6.8 mm; zone of inhibition at 600 µg/mL (Bacillus pumilus [11]; read-out: IZ): 3.2 mm; growth inhibition (GI) (Candida albicans [22]): inactive; zone of inhibition at 1200 µg/mL (Colletotrichum falcatum [24]): 32.5 mm; zone of inhibition at 900 µg/mL (Priestia megaterium [25]): 8.4 mm; zone of inhibition at 600 µg/mL (Klebsiella pneumoniae [26]): 2.04 mm; growth inhibition (GI) (Candida albicans [27]): inactive; zone of inhibition at 900 µg/mL (Colletotrichum falcatum [28]): 16.8 mm; growth inhibition (GI) (Candida albicans [29]): inactive; zone of inhibition at 600 µg/mL (Fusarium oxysporum [30]): 4.92 mm; zone of inhibition at 600 µg/mL (Colletotrichum falcatum [31]): 7.6 mm; growth inhibition (GI) (Candida albicans [32]): inactive; zone of inhibition at 600 µg/mL (Proteus vulgaris [33]): 4.2 mm; zone of inhibition at 900 µg/mL (Fusarium oxysporum [34]): 12.1 mm; zone of inhibition at 300 µg/mL (Colletotrichum falcatum [35]): 4.49 mm; zone of inhibition at 1200 µg/mL (Fusarium oxysporum [36]): 19.8 mm
COc1ccc2c(OCCCN3CCN(Cc4ccc(Br)cc4)CC3)c(-c3ccccc3)c(=O)oc2c1 | 2.08 | 31.3 | 8.12 | 3.25 | 6.25 | 5.02 | 6.25 | 6.24 | 10.2 | 4.28 | 8 | 4.56 | 15.6 | 3.56 | 4.25 | 13.1 | 2 | 4.01 | 6.8 | 4.16 | growth inhibition (GI) (Bacillus pumilus [10]): inactive; growth inhibition (GI) (Bacillus pumilus [11]): inactive; zone of inhibition at 600 µg/mL (Candida albicans [22]; read-out: IZ): 5.84 mm; zone of inhibition at 1200 µg/mL (Colletotrichum falcatum [24]): 33.8 mm; zone of inhibition at 900 µg/mL (Priestia megaterium [25]): 12.1 mm; zone of inhibition at 600 µg/mL (Klebsiella pneumoniae [26]): 2.89 mm; zone of inhibition at 900 µg/mL (Candida albicans [27]; read-out: IZ): 10.1 mm; zone of inhibition at 900 µg/mL (Colletotrichum falcatum [28]): 19.4 mm; zone of inhibition at 1200 µg/mL (Candida albicans [29]; read-out: IZ): 19.6 mm; zone of inhibition at 600 µg/mL (Fusarium oxysporum [30]): 6.15 mm; zone of inhibition at 600 µg/mL (Colletotrichum falcatum [31]): 9.76 mm; zone of inhibition at 300 µg/mL (Candida albicans [32]; read-out: IZ): 3.02 mm; zone of inhibition at 600 µg/mL (Proteus vulgaris [33]): 5.02 mm; zone of inhibition at 900 µg/mL (Fusarium oxysporum [34]): 14.2 mm; zone of inhibition at 300 µg/mL (Colletotrichum falcatum [35]): 5.62 mm; zone of inhibition at 1200 µg/mL (Fusarium oxysporum [36]): 29.4 mm
